Source: article PMC8688955 (Frontiers in Pharmacology, 2021)

System: CP-AMPARs
Test: Whole-cell patch-clamp of kainate-induced currents in isolated striatal giant interneurons
Type: cell-based, Wistar rat
Details: for % block: representative recording, Figure 1B; for % inhibition: 200 µM phenytoin, n = 5
Experimental: All experimental procedures were approved by the Animal Care and Use Committee of the I.M. Sechenov Institute of Evolutionary Physiology and Biochemistry of the Russian Academy of Sciences. Wistar rats (13–19 days old) were anesthetized with sevoflurane and then decapitated. Maximum effort was made to minimize the number of animals used. Brains were removed quickly and cooled to 2–4°C in an ice bath. […] Single neurons were freed from slices by vibrodissociation ([Vorobjev, 1991]). The antagonism of CP-AMPARs was studied on striatal giant interneurons ([Bernard et al., 1997]; [Gotz et al., 1997]), which were identified by their shape and size. […] The antagonism of CI-AMPARs was studied on pyramidal neurons from the CA1 area of the hippocampus.
Series resistance of about 20 MΩ was compensated by 70–80% and monitored during experiments. Currents were recorded using an EPC-8 amplifier (HEKA Electronics, Lambrecht, Germany), filtered at 5 kHz, sampled, and stored on a personal computer. Drugs were applied using the RSC-200 perfusion system (BioLogic Science Instruments, Claix, France) under computer control. The solution exchange time in the whole-cell mode was 50–60 ms. The extracellular solution contained (in mM) NaCl 143, KCl 5, MgCl2 2.0, CaCl2 2.5, D-glucose 18, and HEPES 10 (pH was adjusted to 7.3 with HCl). The pipette solution contained (in mM) CsF 100, CsCl 40, NaCl 5, CaCl2 0.5, EGTA 5, and HEPES 10 (pH was adjusted to 7.2 with CsOH). Experiments were performed at room temperature (22–24°C). […] Lamotrigine, topiramate, levetiracetam, felbamate, carbamazepine, tiagabin, vigabatrin, zonisamide, and gabapentin were purchased from Tocris Bioscience (Bristol, United Kingdom). Perampanel was from MedChemExpress (Stockholm, Sweden). Kinetics of transient processes of more than 20-ms duration was approximated by exponential functions. Experiments were performed at −80 mV holding voltage. All experimental data are presented as mean ± SD estimated from at least four experiments. Significance of the effects was tested with paired t test. Differences were considered significant at p < 0.05. 3D structures of compounds were calculated by the ZMM software (zmmsoft.ca).

In the case of `O=C1NC(=O)C(c2ccccc2)(c2ccccc2)N1` [Phenytoin], the “% block” value (30 μM phenytoin) is reported as 19%, the “% block” value (100 μM phenytoin) is reported as 38% and the “% inhibition” value (50 µM kainate) is reported as 59 ± 5%. The “% inhibition” value (500 µM kainate) was 48 ± 2%, the “% block, coapplication with agonist” value (300 µM phenytoin, n = 8) was 60 ± 6% and the “% block” value (300 μM phenytoin) was 57%. For the same molecule, the “inhibition of kainate-induced currents” value (500 µM phenytoin, highest concentration tested) was 58 ± 5%, the Hill coefficient (inhibition of CP-AMPARs, Hill equation) was 0.7 ± 0.2 and the IC50 (kainate-induced currents, Hill equation, −80 mV, read-out: IC50 CP-AMPARs) was 250 ± 60 µM.
